This note sets out measurements from patent publication US20090209527A1, “Methods for Using Rapamycin Analogues in the Treatment of Neurological Disorders” (Wyeth, priority 2008, published 2009).

In experiment [1] the test system is Spinal cord neuron cultures. Put plainly: Spinal cord neuron assay. The experiment is classed as cell-based. The note with it: Rattus norvegicus, 72 hours treatment, read-out: EC50 in spinal cord neuron assays. The protocol:
Spinal cord neuron cultures were prepared from embryonic day 15 (E15) rat embryos (Liu et al., Screening of Immunophilin Ligands by Quantitative Analysis of Neurofilament Expression and Neurite Outgrowth in Cultured Neurons and Cells, J. Neurosci. Methods, 2007 Jul. 30; 163(2):310-20). The embryos were collected and their spinal cords were removed in ice-cold phosphate-buffered saline (PBS) without Ca^2+ and Mg^2+. Dissected pieces of spinal cord tissue were pooled together and transferred to an enzymatic dissociation media containing 20 IU/mL papain in Earle's balanced salt solution (Worthington Biochemical, Freehold, N.J.) and incubated for 30 minutes at 37° C. After enzymatic dissociation, the papain solution was aspirated and the tissue mechanically triturated with a fire-polished Pasteur pipette in complete media [Neurobasal Medium with B-27 supplement (Gibco, Grand Island, N.Y.), 100 IU/mL penicillin, 100 µg/mL streptomycin, […] aphidicolin, 0.5 mM glutamate] containing 2,000 IU/mL DNase and 10 mg/mL ovomucoid protease inhibitor. Single-cell suspensions in complete media were plated on pre-coated poly-L-ornithine/laminin 96-well plates (Becton-Dickinson, Bedford, Mass.) at a density of 1.0×10^4 cells/well. Spinal cord neurons were maintained for 24 hours then exposed to vehicle or various concentrations of compound for 72 hours.

The subject of a further experiment is tMCAO in rats. Nature of the experiment: Transient middle cerebral artery occlusion (tMCAO) model of ischemic stroke. The experiment is classed as in vivo, rat. The conditions noted are these: for reduction of infarct volume: 72 hours. Here is the method: The compound of Example 2 was evaluated in two known rodent models of ischemic stroke. [Bederson J B, Pitts L H, Tsuji M, Nishimura M C, Davis R L, Bartkowski H (1986) Rat middle cerebral artery occlusion: evaluation of the model and development of a neurologic examination. Stroke 17(3): 472-476; Chen S T, Hsu C Y, Hogan E L, Maricq H Balentine J D (1986) A model of focal ischemic stroke in the rat: reproducible extensive cortical infarction. Stroke 17:738-743. DeRyck M, van Reempts J, Duytschaever H, van Deuren B, Clincke G (1992) Neocortical localization of tactile/proprioceptive limb placing reactions in the rat. Brain Res 573:44-60; Longa Z E, Weinstein P R, Carlson S, Cummins R. (1989) Reversible middle cerebral artery occlusion without craniectomy in rats. Stroke 20:294-297.]
The first model is a transient middle cerebral artery occlusion (tMCAO), in which the MCA is occluded for 90 minutes, followed by 72 hours of reperfusion. Rats were subjected to tMCAO and treated with either the compound of Example 2 (3 mg/kg, 10 mg/kg, or 30 mg/kg) via intravenous delivery [iv vehicle: 5% Tween 80, 5% PEG 400, 4% ethanol] or vehicle alone at 4, 6, 24, and 48 hours post-occlusion (4 total doses). Neurological deficits (modified Bederson scale) and weight loss were monitored at 0, 24, 48, and 72 hours post occlusion. At the end of the evaluation period, rats were euthanized and infarct volume was determined. A modified Bederson scale was used to evaluate neurological deficits following stroke. Animals were scored on a scale of 0 to 5, based on five parameters (forelimb flexion, torso twisting, resistant to lateral push, circling to contralateral side, and spontaneous circling). A score of 0 is normal whereas a score of 5 represents severe neurological deficits.

In the next experiment the test system is pMCAO in rats. Put plainly: Permanent occlusion of middle cerebral artery (pMCAO), Example 10, behavioral deficit scoring over 21 days. The experiment is classed as in vivo, Wistar rats. The note with it: 10 mg/kg i.v. 1.5, 5.5, 24, 48 and 72 hours post ischemia. Here is the method:
Administration of Compound of Example 2—10 mg/kg i.v. 1.5, 5.5, 24, 48, and 72 hours post ischemia.
Adult male Wistar rats (Charles River, Wilmington, Mass.) 270 g to 300 g were anesthetized with 3% isoflurane in 70% nitrous oxide and 30% oxygen through a nose cone. Temperature was maintained at 37° C. throughout the surgery using a heating lamp. Permanent occlusion of MCAO was induced by electro cauterization of the distal portion of the MCA (via a craniotomy) with a 90 minute ligation of both carotid arteries to interrupt collateral circulation (Chen S T, Hsu C Y, Hogan E L, Maricq H Balentine J D (1986) A model of focal ischemic stroke in the rat: reproducible extensive cortical infarction. Stroke 17:738-743). Compound was administered 10 mg/kg i.v. 1.5, 5.5, 24, 48, and 72 hours post ischemia. Rats were kept for 21 days for long-term functional recovery evaluation. […] Rats extending both forelimbs toward the table were scored as 0, flexing contralateral limb toward the body and/or rotating the contralateral shoulder and limb medially were scored as 1, and rolling up the body toward the contralateral side and attempting to grasp the tail were scored as 2. […] Rats retracting hind limb back on bench top immediately were scored as 0, delaying (>2 seconds) were scored as 1, and unable to retract hind limb were score as 2. […]

Regarding `CO[C@H]1C[C@@H]2CC[C@@H](C)[C@@](O)(O2)C(=O)C(=O)N2CCCC[C@H]2C(=O)O[C@H]([C@H](C)C[C@@H]2CC[C@@H](O)[C@H](OC)C2)CC(=O)[C@H](C)/C=C(\C)[C@@H](O)[C@@H](OC)C(=O)[C@H](C)C[C@H](C)[C@@H]2CC[C@H](/C=C/1C)ON2c1ccccc1` [Example 2, 9,27-dihydroxy-3-{2-[4-hydroxy-3-methoxycyclohexyl]-1-methylethyl}-10,21-dimethoxy-6,8,12,14,20,26-hexamethyl-37-phenyl-4,9,10,12,13,14,15,16,17,18,21,22,23,24,25,26,27,32,33,34,34a-henicosahydro-3H-23,27-epoxy-18,15-(epoxyimino)pyrido[2,1-c][1,4]oxazacyclohentriacontine-1,5,11,28,29(6H,31H)-pentone], the EC50 – broadly, the concentration giving half of the maximal effect – in experiment [1] is below 1000 nM. Besides, the “weight loss following tMCAO” value with tMCAO in rats (3 mg/kg iv), in the experiment with tMCAO in rats (10 mg/kg iv) and in the experiment on tMCAO in rats (30 mg/kg iv) was “significantly attenuated weight loss” in each case. Besides, the “neurological deficits (modified Bederson scale) following tMCAO vs vehicle” value is “showed trends of improving neurological deficits, but did not reach statistical significance” with tMCAO in rats (3 mg/kg iv at 4, 6, 24 and 48 hours post-occlusion); “significantly improved neurological deficits” with tMCAO in rats (10 mg/kg iv at 4, 6, 24 and 48 hours post-occlusion); “significantly improved neurological deficits” in the experiment on tMCAO in rats (30 mg/kg iv at 4, 6, 24 and 48 hours post-occlusion). For the same molecule, the “reduction of infarct volume” value with tMCAO in rats (3 mg/kg iv, did not reach statistical significance) was determined as 9%; in the experiment on tMCAO in rats (10 mg/kg iv, significant vs vehicle), 24%; in the experiment on tMCAO in rats (30 mg/kg iv, significant vs vehicle) it was 23%. In addition, the “infarct volume following tMCAO in rats (FIG. 10)” value with tMCAO in rats (dose not stated) is reported as “reduces infarct volume”. Further, in the experiment on tMCAO in rats (dose not stated), the “neurological deficits following tMCAO in rats (FIG. 8)” value is “improves neurological deficits”. Further, the “weight loss following tMCAO in rats (FIG. 9)” value with tMCAO in rats (dose not stated) is recorded as “attenuates weight loss”. The “behavior deficit scoring (total score 0 to 12) following pMCAO” value with pMCAO in rats was “statistically significant reduction of behavior deficit scoring”.
